Laboratory results reported in article PMC10498667 (Chemical Science, 2023).
Read-outs that look alike come from different tables or passages of the source.

Key:
Format in all cases: biochemical
Aβ42 [1] = biological target: T1, Aβ42 (Homo sapiens, UniProt P05067); test: Dot blot assay with anti-oligomer (A11) and anti-fibril (OC) antibodies; settings: flavonoid 200 μM, up to 24 h
T1 construct: purchased Peptide Institute, Inc. (Osaka, Japan)
Excerpt: Moreover, to investigate the effects of the flavonoids on the oligomerization and fibrilization of metal-free Aβ42 and metal–Aβ42, we performed the dot blot assay employing anti-oligomer (A11) and anti-fibril (OC) antibodies,[23] as illustrated in Fig. S12. ^† It should be noted that the thioflavin-T (ThT) assay utilized for monitoring the formation of β-sheet-rich aggregates cannot be carried out under our experimental conditions since the absorption windows of 4, 5, and 4b interfere with the excitation and emission wavelengths of ThT (Fig. S13 ^†). […]
Dot Blot Assay. The samples containing Ab42 (100 µM) with or without CuCl2 or ZnCl2 (100 µM) in the absence and presence of flavonoids (200 µM; 1% v/v DMSO) were prepared in 20 mM HEPES, pH 7.4, 150 mM NaCl and incubated for various time points (0, 1, 2, 3, 4, 6, 12, and 24 h). […] The membrane was incubated with a primary antibody [i.e., 6E1026 for Ab species (1:2,000), A1126 for Ab oligomers (1:1,000; Invitrogen, Carlsbad, CA, USA), or OC26 for Ab fibrils (1:2,000; Merch Millipore, Billerica, MA, USA)] in the solution of BSA (2% w/v in TBS-T) for 4 h at room temperature. […] A homemade ECL kit21–23 was used to visualize the results on a ChemiDoc MP Imaging System.
The intensity observed from A11- or OC-detectable Ab species was quantified, relative to that detected from 6E10, by the ImageJ software. […]

Aβ42 [2] = biological target: T1, Aβ42; test: Aβ42 aggregation inhibition experiments (gel/western blot, TEM); settings: flavonoid 50 μM, 24 h
Description: To verify whether a series of nine flavonoids can modulate the aggregation of Aβ with and without metal ions, the molecular weight (MW) distribution and morphology of the resultant Aβ species were determined by gel electrophoresis with western blotting (gel/western blot) using an anti-Aβ antibody (6E10) and transmission electron microscopy (TEM), respectively. Two types of experiments were carried out employing two major Aβ isoforms, i.e., Aβ42 and Aβ40:[25] (i) inhibition studies to identify the effect of 1–5, 1a, 1b, 4a, and 4b on the formation of Aβ aggregates; (ii) disaggregation studies to evaluate if the flavonoids with reactivities towards Aβ aggregation in inhibition studies can disassemble preformed Aβ aggregates or modulate their further aggregation, as illustrated in Fig. 4 and S5–S9. ^† Moreover, the solutions containing the flavonoids and Cu(II) were probed by electronic absorption (Abs) spectroscopy to monitor their metal binding. […] As expected, no Abs change of 1a and 4a composed of methoxy groups on the A ring was detected by addition of Cu(II). […]
Ab Aggregation Experiments. Ab was dissolved in ammonium hydroxide [1% w/w NH4OH (aq)] and the resulting solution was aliquoted, lyophilized overnight, and stored at –80 °C. A stock solution of Ab was then prepared by dissolving the lyophilized peptide with NH4OH (1% w/w, aq; 10 µL) and diluting with ddH2O. All Ab samples were prepared following previously reported procedures.21,22 The concentration of the peptide solution was determined by measuring its […]
solution (20 mM HEPES, pH 7.4, 150 mM NaCl) was used for preparing Ab samples. For the inhibition studies, flavonoids (final concentration, 50 µM; 1% v/v DMSO) were added to the samples of Ab (25 µM) in the absence and presence of CuCl2 or ZnCl2 (25 µM) followed by incubation for 24 h at 37 °C with constant agitation. For the disaggregation studies, Ab (25 µM) was incubated with and without CuCl2 or ZnCl2 (25 µM) for 24 h at 37 °C with constant agitation to generate preformed Ab aggregates. The resultant Ab aggregates were then treated with flavonoids (50 µM) and incubated for additional 24 h with constant agitation. For the additional disaggregation experiments, preformed Ab42 aggregates (25 µM) or Ab42 seeds (10% v/v) with or without metal ions (25 µM for CuCl2 and ZnCl2) were incubated with flavonoids (50 µM) for 24 h with constant agitation. The resultant Ab aggregates were then treated with freshly prepared Ab42 […]
(25 µM) and incubated for additional 24 h with constant agitation.
Gel/Western Blot. The resultant Ab species from the aggregation experiments were analyzed by gel/Western blot using an anti-Ab antibody (6E10, Covance, Princeton, NJ, USA).21,22 Each sample (10 µL) was separated on a 10–20% tricine gel (Invitrogen). Following separation, the proteins were transferred onto nitrocellulose membranes and blocked with bovine serum albumin (BSA, 3% w/v; Sigma-Aldrich) in Tris-buffered saline (TBS) containing 0.1% v/v Tween-20 (Sigma-Aldrich) (TBS-T) for 4 h at room temperature or overnight at 4 °C. The membranes were incubated with 6E10 (1:2,000) in the solution of BSA (2% w/v in TBS-T) for 4 h at room temperature. […] A homemade ECL kit21–23 was used to visualize gel/Western blots on a ChemiDoc MP Imaging System (Bio-Rad).
TEM. Samples for TEM were prepared following previously reported methods.22,24 Glow-discharged grids (Formvar/Carbon 300-mesh; Electron Microscopy Sciences, Hatfield, PA, USA) were treated with Ab samples (25 µM; 7.5 µL) for 2 min at room temperature. Excess sample was removed using filter paper followed by washing with ddH2O (3x). Each grid incubated with uranyl […]

[3] = biological target: T2, Electric eel acetylcholinesterase (eeAChE) (Electrophorus electricus, UniProt O42275); test: Fluorometric AChE activity assay
T2 construct: purchased Invitrogen (AChE assay kit)
T2 sequence (O42275 24-633): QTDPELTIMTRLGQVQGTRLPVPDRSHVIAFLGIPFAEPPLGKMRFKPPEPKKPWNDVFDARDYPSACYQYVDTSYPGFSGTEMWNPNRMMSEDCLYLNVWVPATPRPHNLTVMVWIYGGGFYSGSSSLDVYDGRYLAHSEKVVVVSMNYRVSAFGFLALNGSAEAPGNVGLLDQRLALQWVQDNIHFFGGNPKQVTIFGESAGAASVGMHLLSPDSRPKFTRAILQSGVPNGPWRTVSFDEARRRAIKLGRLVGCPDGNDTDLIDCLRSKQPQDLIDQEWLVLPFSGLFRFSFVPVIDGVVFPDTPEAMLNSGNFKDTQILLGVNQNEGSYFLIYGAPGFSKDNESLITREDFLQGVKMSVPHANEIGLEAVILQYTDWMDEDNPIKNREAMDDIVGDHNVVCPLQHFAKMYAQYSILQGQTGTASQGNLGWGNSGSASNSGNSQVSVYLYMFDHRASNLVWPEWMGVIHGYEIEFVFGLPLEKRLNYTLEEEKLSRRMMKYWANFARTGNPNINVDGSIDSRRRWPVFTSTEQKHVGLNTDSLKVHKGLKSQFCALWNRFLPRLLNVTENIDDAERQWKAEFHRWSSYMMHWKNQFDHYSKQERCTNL
Excerpt: Inhibiting the activity of AChE can maintain a proper level of ACh under dysregulated cholinergic conditions.[10,11] Thus, the inhibitory capability of flavonoids against AChE was investigated by a previously reported fluorescent AChE assay with slight modifications.[60] […] The inclusion of three hydroxyl groups on the A ring is critical for controlling the catalytic activity of AChE, as previously reported,[49] whereas the incorporation of a chloro substituent, with three hydroxyl groups, and methoxy moieties instead of hydroxyl groups on the A ring can decrease such inhibitory activity. Flavonoids 2, 3, and 1b over 1 illustrates the importance of the position of hydroxyl groups on the A ring and the isoflavone variation in directing the flavonoids' ability to inhibit the activity of AChE. […]
All experiments were performed in triplicate.
AChE Activity Assay. The AChE inhibitory activity of flavonoids was measured by a fluorometric AChE assay kit (Invitrogen) following the manufacturer ’s protocol with slight modifications.
Electric eel acetylcholinesterase (eeAChE) was dissolved and diluted with a working solution. The eeAChE solution (50 µL) was added into a 96-well plate. Various concentrations of flavonoids were then introduced into the 96-well plate. The final concentrations of flavonoids were as follow: […]
µM). After shaking, the mixture of eeAChE and flavonoids was pre-incubated for 15 min. A reaction mixture containing acetylcholine, an AChE probe, and AbRedTM was added into the 96-well plate to initiate the reaction. The AChE activity was calculated based on the fluorescence intensity (lex/lem = 571/585 nm) of the wells that was detected after 15 min incubation. Data were normalized to the control (no inhibitor). All experiments were performed in triplicate. […]
For the disaggregation studies, Ab (25 µM) was incubated with and without CuCl2 or ZnCl2 (25 µM) for 24 h at 37 °C with constant agitation to generate preformed Ab aggregates. The resultant Ab aggregates were then treated with flavonoids (50 µM) and incubated for additional 24 h with constant agitation. For the additional disaggregation experiments, preformed Ab42 aggregates (25 µM) or Ab42 seeds (10% v/v) with or without metal ions (25 µM for CuCl2 and ZnCl2) were incubated with flavonoids (50 µM) for 24 h with constant agitation. The resultant Ab aggregates were then treated with freshly prepared Ab42

[4] = Cu(II)–Aβ42 or Zn(II)–Aβ42 100 μM
[5] = Zn(II)–Aβ42, Aβ 25 μM, Zn(II) 25 μM

T1 sequence (P05067 672-713 limits assumed): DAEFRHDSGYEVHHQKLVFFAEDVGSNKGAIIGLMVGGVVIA

**Q.** What does the source list for `O=c1c(-c2ccccc2)coc2cc(O)cc(O)c12` [1b, 5,7-dihydroxyisoflavone]?
**A.** A11- and OC-detectable signals (oligomers and fibrils) (Aβ42 [1]; [4]): not significantly varied; A11- and OC-detectable signals (oligomers and fibrils) (Aβ42 [1]; metal-free Aβ42 100 μM): not significantly varied; morphology of resultant aggregates (TEM) (Aβ42 [2]; Cu(II)–Aβ42): did not indicate any noticeable morphological changes; MW distribution of resultant species (gel/western blot) (Aβ42 [2]; [5]): a significant change in the MW distribution was not indicated; morphology of resultant aggregates (TEM) (Aβ42 [2]; Zn(II)–Aβ42): did not indicate any noticeable morphological changes; MW distribution of resultant species (gel/western blot) (Aβ42 [2]; metal-free Aβ42 25 μM, 37 °C): could not change the size distribution; morphology of resultant aggregates (TEM) (Aβ42 [2]; metal-free Aβ42): little or no morphological alteration; IC50 [3]: 11.8 µM

**Q.** What does the source list for `COc1cc(OC)c2c(=O)cc(-c3ccccc3)oc2c1` [1a, 5,7-dimethoxyflavone]?
**A.** A11- and OC-detectable signals (oligomers and fibrils) (Aβ42 [1]; [4]): not significantly varied; A11- and OC-detectable signals (oligomers and fibrils) (Aβ42 [1]; metal-free Aβ42 100 μM): not significantly varied; morphology of resultant aggregates (TEM) (Aβ42 [2]; Cu(II)–Aβ42): did not indicate any noticeable morphological changes; MW distribution of resultant species (gel/western blot) (Aβ42 [2]; [5]): a significant change in the MW distribution was not indicated; morphology of resultant aggregates (TEM) (Aβ42 [2]; Zn(II)–Aβ42): did not indicate any noticeable morphological changes; MW distribution of resultant species (gel/western blot) (Aβ42 [2]; metal-free Aβ42 25 μM, 37 °C): could not change the size distribution; morphology of resultant aggregates (TEM) (Aβ42 [2]; metal-free Aβ42): little or no morphological alteration; inhibitory activity against AChE (IC50 could not be obtained) ([3]; fluorometric assay, eeAChE): negligible inhibitory activity

**Q.** `COc1cc2oc(-c3ccccc3)cc(=O)c2c(OC)c1OC` [4a, 5,6,7-trimethoxyflavone] was tested. Which “A11- and OC-detectable signals (oligomers and fibrils)” value (Aβ42 [1]; [4]) did it give?
**A.** Its value is “not significantly varied”.

**Q.** What about the “A11- and OC-detectable signals (oligomers and fibrils)” value (Aβ42 [1]; metal-free Aβ42 100 μM) of the same compound?
**A.** Its value is “not significantly varied”.

**Q.** What about the “morphology of resultant aggregates (TEM)” value (Aβ42 [2]; Cu(II)–Aβ42) of the same compound?
**A.** Its value is “did not indicate any noticeable morphological changes”.

**Q.** What about the “MW distribution of resultant species (gel/western blot)” value (Aβ42 [2]; [5]) of the same compound?
**A.** The value was “a significant change in the MW distribution was not indicated”.

**Q.** What about the “morphology of resultant aggregates (TEM)” value (Aβ42 [2]; Zn(II)–Aβ42) of the same compound?
**A.** The value was “did not indicate any noticeable morphological changes”.

**Q.** What about the “MW distribution of resultant species (gel/western blot)” value (Aβ42 [2]; metal-free Aβ42 25 μM, 37 °C) of the same compound?
**A.** The value was “could not change the size distribution”.

**Q.** And the “morphology of resultant aggregates (TEM)” value (Aβ42 [2]; metal-free Aβ42)?
**A.** The value was “little or no morphological alteration”.

**Q.** And the IC50 ([3]; fluorometric assay, eeAChE, read-out: IC50 for AChE inhibition)?
**A.** Its IC50 is 52.5 µM.
